Experimental data reported in patent US20250090437A1, “COSMETIC COMPOUNDING AGENT, COSMETIC AND PRODUCTION METHOD THEREOF” (MIYOSHI OIL & FAT CO., LTD., priority 2019, published 2025).
Values belong to the molecule of their own block, whether it stands above or below them.

Tests used:
[1] = Water retention property test 3 (long term); assay type: physicochemical; details: for Amount of moisture reduction in 0 to 24 h / Amount of moisture reduction in 24 to 96 h / Amount of moisture reduction per hour / Pre-test moisture rate / Moisture rate after 24 h / Moisture rate after 96 h / Amount of moisture reduction in 96 to 120 h / Moisture rate after 120 h: 80 wt % aqueous solution; for Amount of moisture reduction in 0 to 24 h / Amount of moisture reduction in 24 to 96 h / Amount of moisture reduction in 96 to 120 h: 1.0 g; for Amount of moisture reduction in 0 to 24 h / Amount of moisture reduction in 24 to 96 h / Amount of moisture reduction per hour / Moisture rate after 24 h / Moisture rate after 96 h / Amount of moisture reduction in 96 to 120 h / Moisture rate after 120 h: 40° C. and 25% RH; for Pre-test moisture rate: before the test; for Moisture rate after 24 h / Moisture rate after 96 h / Moisture rate after 120 h: unsealed
Protocol: In a water retention property test 3, an 80 wt % aqueous solution of each of the compounds C8, C11, C62, C63 and C64 was prepared, followed by using a Karl Fischer moisture meter to confirm that a moisture rate was 20.0 wt %. Next, 1.0 g of each of these samples was added to a screw tube, and this screw tube, while remaining unsealed, was then left to stand still in a thermo-hygrostat set to 40° C. and 25% RH. […] In addition, the water retention property was evaluated by calculating an amount of moisture reduction per hour (mg/h) based on each amount of moisture reduction (mg).

[2] = Water retention property and adherability with respect to healthy hair; design: species or system human; details: for Compound adhesion rate / Post-test moisture rate: healthy hair immersed 60 min in 80 wt % aqueous solution; for Post-test moisture rate: after 24 hours at 40° C., pre-test 7.6%; for Post-test moisture rate / Rate of reduction in moisture: 35 to 40% RH; for Rate of reduction in moisture: healthy hair, 80 wt % aqueous solution, 24 hours at 40° C.
Protocol: In the following evaluations, a human black hair produced by Beaulax Co., Ltd was used as a healthy hair. A damaged hair was prepared by repeatedly having the healthy hair permed and bleached three times.
An 80 wt % aqueous solution of each of the compounds B1 to B26 (content in terms of anhydride in the cases of the compounds B1 to B23) was prepared, followed by using a Karl Fischer moisture meter (KF-200 by Mitsubishi Chemical Analytech Co., Ltd.) to confirm that a moisture rate was 20.0 wt %. As a healthy hair, there was used a chemically untreated healthy hair (human black hair by Beaulax Co., Ltd). The moisture rate (pre-test moisture rate A) of the hair was measured by an infrared moisture meter (by Kett Electric Laboratory).
After immersion, the hair was taken out, and KimWipes were then used to wipe off the compound until a change in weight was no longer observed, followed by measuring the weight of the hair (post-test hair weight B). The hair from which the compound had been wiped off was then placed into a thermo-hygrostat set to 40° C. and 35 to 40% RH. A moisture rate after 24 hours (post-test moisture rate B) was then measured, followed by calculating a rate of reduction in moisture with the following formula. Likewise, instead of the 80 wt % aqueous solution, evaluation was also performed in a similar manner using only an ion-exchange water (comparative example B4).
Further, an adhesion rate of the compound adhering to the hair was calculated with the following formula. […]

[3] = Water retention property test 1; assay type: physicochemical; details: 80 wt % aqueous solution; for Water retention property test 1 Post-test moisture rate / Water retention property test 1 Rate of reduction in moisture / Post-test moisture rate / Rate of reduction in moisture: 24 hours at 40° C. and 25% RH; for Pre-test moisture rate: before the test (Karl Fischer); for Post-test moisture rate / Rate of reduction in moisture: unsealed
Protocol: A moisture rate after 24 hours was again measured (post-test moisture rate: B), followed by using the formula below to calculate a rate of reduction in moisture so as to evaluate the water retention property. • Pre-test moisture rate: A (%) • Post-test moisture rate: B (%)

[4] = Water confinement property test (barrier property); assay type: physicochemical; details: 80 wt % aqueous solution, 0.01 mL/cm^2 on filter paper, 40° C. and 25% RH, 24 hours
Protocol: Next, 20.0 g of an ion-exchange water was put into a 40 mL pierce vial bottle (by AS ONE Corporation.), followed by removing an inner lid (rubber plug) of the pierce vial bottle, placing on the pierce vial bottle the filter paper to which each sample had been applied, and then plugging the bottle with an outer lid.
Further, Wm1, Wm2, Sm1 and Sm2 in the formula below respectively represent the following numerical values.
Wm1: Weight of ion-exchange water in vial before storage (using filter paper to which only ion-exchange water had been applied)
Wm2: Weight of ion-exchange water in vial after 24 hours (using filter paper to which only ion-exchange water had been applied)
Sm1: Weight of ion-exchange water in vial before storage (using filter paper to which sample had been applied)
Sm2: Weight of ion-exchange water in vial after 24 hours (using filter paper to which sample had been applied)

SMILES: CCCC[N+](CCCC)(CCCC)CCCC.[Br-] [Comparative example C13]
- Amount of moisture reduction in 0 to 24 h ([1]; 0~24 h): 49.1 mg
- Amount of moisture reduction in 24 to 96 h ([1]; 24~96 h): 145.8 mg
- Amount of moisture reduction per hour ([1]; 0~24 h): 2.0 mg/h
- Amount of moisture reduction per hour ([1]; 24~96 h): 2.0 mg/h
- Pre-test moisture rate [1]: 20.0%
- Moisture rate after 24 h [1]: 15.9%
- Moisture rate after 96 h [1]: 0.7%

- Amount of moisture reduction in 0 to 24 h ([1]; 0~24 h): 64.3 mg
- Amount of moisture reduction in 24 to 96 h ([1]; 24~96 h): 134.4 mg
- Amount of moisture reduction per hour ([1]; 0~24 h): 2.7 mg/h
- Pre-test moisture rate [1]: 20.0%
- Moisture rate after 24 h [1]: 14.5%
- Moisture rate after 96 h [1]: 0.0%
SMILES: CCCCn1cc[n+](C)c1.F[B-](F)(F)F [Comparative example C14]

- Amount of moisture reduction in 0 to 24 h ([1]; 0~24 h): 24.6 mg
- Amount of moisture reduction in 24 to 96 h ([1]; 24~96 h): 74.8 mg
- Amount of moisture reduction in 96 to 120 h ([1]; 96~120 h): 25.0 mg
- Amount of moisture reduction per hour ([1]; 0~24 h): 1.0 mg/h
- Amount of moisture reduction per hour ([1]; 24~96 h): 1.0 mg/h
- Amount of moisture reduction per hour ([1]; 96~120 h): 1.0 mg/h
- Pre-test moisture rate [1]: 20.0%
- Moisture rate after 24 h [1]: 18.0%
- Moisture rate after 96 h [1]: 11.1%
- Moisture rate after 120 h [1]: 8.6%
SMILES: OCC(O)CO [Comparative example C15]

SMILES: O [Compound B8]
- Compound adhesion rate [2]: 1.3%
- Post-test moisture rate [2]: 6.1%
- Rate of reduction in moisture [2]: 20%

SMILES: NC(CO)(CO)CO.O=C(O)CC(O)(CC(=O)O)C(=O)O [Compound B13]
- Compound adhesion rate [2]: 2.3%
- Post-test moisture rate [2]: 6.5%
- Rate of reduction in moisture [2]: 15%

SMILES: NC(CO)(CO)CO.O=C(O)CO [Compound B14]
- Compound adhesion rate [2]: 1.3%
- Post-test moisture rate [2]: 7.4%
- Rate of reduction in moisture [2]: 3%

SMILES: CC(=O)CCC(=O)O.NC(CO)(CO)CO [Compound B17]
- Compound adhesion rate [2]: 6.9%
- Post-test moisture rate [2]: 6.5%
- Rate of reduction in moisture [2]: 15%

SMILES: NC(CO)(CO)CO.O=C1OC(C(O)CO)C(O)=C1O (centres unmarked) [Compound B20]
- Compound adhesion rate [2]: 2.1%
- Post-test moisture rate [2]: 6.6%
- Rate of reduction in moisture [2]: 14%

SMILES: O [Compound B21]
- Compound adhesion rate [2]: 1.1%
- Post-test moisture rate [2]: 5.8%
- Rate of reduction in moisture [2]: 24%

SMILES: CCCCn1cc[n+](C)c1.[Cl-] [Compound B25, 1-butyl-3-methylimidazolium chloride, reference compound]
- Compound adhesion rate [2]: 1.0%
- Post-test moisture rate [2]: 4.0%
- Rate of reduction in moisture [2]: 47%

- Water retention property test 1 Pre-test moisture rate [3]: 20.0%
- Water retention property test 1 Post-test moisture rate [3]: 19.3%
- Water retention property test 1 Rate of reduction in moisture [3]: 4.4%
- Water evaporation inhibition rate [4]: 39.7%
SMILES: CC(C)(C)CO [Compound C43]

- Water retention property test 1 Pre-test moisture rate [3]: 20.0%
- Water retention property test 1 Post-test moisture rate [3]: 19.2%
- Water retention property test 1 Rate of reduction in moisture [3]: 4.7%
- Water evaporation inhibition rate [4]: 34.8%
SMILES: CC(C)(CO)CO [Compound C47]

- Pre-test moisture rate [3]: 20.0%
- Post-test moisture rate [3]: 19.1%
- Rate of reduction in moisture [3]: 4.4%
- Water evaporation inhibition rate [4]: 39.1%
SMILES: CC(CO)(CO)CO [Compound C50]

- Pre-test moisture rate [3]: 20.0%
- Post-test moisture rate [3]: 19.1%
- Rate of reduction in moisture [3]: 4.5%
- Water evaporation inhibition rate [4]: 35.6%
SMILES: CC(CO)(CO)CO [Compound C51]

- Pre-test moisture rate [3]: 20.0%
- Post-test moisture rate [3]: 18.6%
- Rate of reduction in moisture [3]: 7.1%
- Water evaporation inhibition rate [4]: 36.8%
SMILES: CC(CO)(CO)CO [Compound C52]

- Pre-test moisture rate [3]: 20.0%
- Post-test moisture rate [3]: 19.1%
- Rate of reduction in moisture [3]: 4.4%
- Water evaporation inhibition rate [4]: 34.6%
SMILES: CC(CO)(CO)CO [Compound C53]

- Pre-test moisture rate [3]: 20.0%
- Post-test moisture rate [3]: 18.8%
- Rate of reduction in moisture [3]: 5.8%
- Water evaporation inhibition rate [4]: 30.3%
SMILES: CC(CO)(CO)CO [Compound C54]

- Pre-test moisture rate [3]: 20.0%
- Post-test moisture rate [3]: 18.4%
- Rate of reduction in moisture [3]: 7.9%
- Water evaporation inhibition rate [4]: 34.1%
SMILES: CC(CO)(CO)CO [Compound C55]

SMILES: C[N+](C)(C)CCO.O=C1OC(C(O)CO)C([O-])=C1O (centres unmarked) [Compound C57]
- Pre-test moisture rate [3]: 20.0%
- Post-test moisture rate [3]: 19.0%
- Rate of reduction in moisture [3]: 5.0%

SMILES: C[N+](C)(C)CC(O)CC(=O)O.O=C1O[C@H]([C@@H](O)CO)C([O-])=C1O [Compound C58]
- Pre-test moisture rate [3]: 20.0%
- Post-test moisture rate [3]: 19.2%
- Rate of reduction in moisture [3]: 4.1%

SMILES: CC(=O)OCC[N+](C)(C)C.O=C1O[C@H]([C@@H](O)CO)C([O-])=C1O [Compound C59]
- Pre-test moisture rate [3]: 20.0%
- Post-test moisture rate [3]: 19.3%
- Rate of reduction in moisture [3]: 3.5%

SMILES: CC(O)C(=O)O.NCCCC(=O)O [Compound C60]
- Pre-test moisture rate [3]: 20.0%
- Post-test moisture rate [3]: 18.1%
- Rate of reduction in moisture [3]: 9.9%

SMILES: CC(O)C(=O)O.NCCCCCC(=O)O [Compound C61]
- Pre-test moisture rate [3]: 20.0%
- Post-test moisture rate [3]: 18.1%
- Rate of reduction in moisture [3]: 9.9%

- Pre-test moisture rate [3]: 20.0%
- Post-test moisture rate [3]: 11.7%
- Rate of reduction in moisture [3]: 41.7%
- Water evaporation inhibition rate [4]: 25.7%
SMILES: CCCCn1cc[n+](C)c1.F[B-](F)(F)F [Compound C63, 1-butyl-3-methylimidazolium tetrafluoroborate, reference compound]

- Water evaporation inhibition rate [4]: 39.4%
SMILES: CC(C)(CO)CO [Compound C65]

SMILES: CC(N)(CO)CO.NCCCCCC(=O)O [Compound C76]
- Water evaporation inhibition rate [4]: 35.7%

- Water evaporation inhibition rate [4]: 35.4%
SMILES: CC(CO)(CO)CO [Compound C77]

SMILES: NC(CO)(CO)CO.O=C(O)CC(O)(CC(=O)O)C(=O)O [Compound C82]
- Water evaporation inhibition rate [4]: 35.8%

SMILES: CS(=O)(=O)O.NC(CO)(CO)CO [Compound C83]
- Water evaporation inhibition rate [4]: 31.3%

SMILES: CC(O)C(=O)O.NC(CO)CO (centres unmarked) [Working example C117]
- Amount of moisture reduction in 0 to 24 h ([1]; 0~24 h): 6.7 mg
- Amount of moisture reduction in 24 to 96 h ([1]; 24~96 h): 20.1 mg
- Amount of moisture reduction in 96 to 120 h ([1]; 96~120 h): 4.0 mg
- Amount of moisture reduction per hour ([1]; 0~24 h): 0.3 mg/h
- Amount of moisture reduction per hour ([1]; 24~96 h): 0.3 mg/h
- Amount of moisture reduction per hour ([1]; 96~120 h): 0.2 mg/h
- Pre-test moisture rate [1]: 20.0%
- Moisture rate after 24 h [1]: 19.5%
- Moisture rate after 96 h [1]: 17.8%
- Moisture rate after 120 h [1]: 15.8%
- Moisture rate of hydrate [1]: 16.6%

SMILES: CS(=O)(=O)O.NC(CO)CO [Working example C118]
- Amount of moisture reduction in 0 to 24 h ([1]; 0~24 h): 6.5 mg
- Amount of moisture reduction in 24 to 96 h ([1]; 24~96 h): 20.0 mg
- Amount of moisture reduction in 96 to 120 h ([1]; 96~120 h): 4.1 mg
- Amount of moisture reduction per hour ([1]; 0~24 h): 0.3 mg/h
- Amount of moisture reduction per hour ([1]; 24~96 h): 0.3 mg/h
- Amount of moisture reduction per hour ([1]; 96~120 h): 0.2 mg/h
- Pre-test moisture rate [1]: 20.0%
- Moisture rate after 24 h [1]: 19.4%
- Moisture rate after 96 h [1]: 17.6%
- Moisture rate after 120 h [1]: 15.4%
- Moisture rate of hydrate [1]: 16.1%
